Patent publication US6969449B2, “Multi-well plate and electrode assemblies for ion channel assays” (Vertex Pharmaceuticals (San Diego) LLC, priority 2000, dated 2005)

Tests used:
[1] = tested on: HL5 cells; type: cell-based
[2] = tested on: wild-type HEK-293 cells
[3] = target: IRK1 channel (Rattus norvegicus, UniProt Q64273)
Chain of IRK1 channel (Q64273 whole entry): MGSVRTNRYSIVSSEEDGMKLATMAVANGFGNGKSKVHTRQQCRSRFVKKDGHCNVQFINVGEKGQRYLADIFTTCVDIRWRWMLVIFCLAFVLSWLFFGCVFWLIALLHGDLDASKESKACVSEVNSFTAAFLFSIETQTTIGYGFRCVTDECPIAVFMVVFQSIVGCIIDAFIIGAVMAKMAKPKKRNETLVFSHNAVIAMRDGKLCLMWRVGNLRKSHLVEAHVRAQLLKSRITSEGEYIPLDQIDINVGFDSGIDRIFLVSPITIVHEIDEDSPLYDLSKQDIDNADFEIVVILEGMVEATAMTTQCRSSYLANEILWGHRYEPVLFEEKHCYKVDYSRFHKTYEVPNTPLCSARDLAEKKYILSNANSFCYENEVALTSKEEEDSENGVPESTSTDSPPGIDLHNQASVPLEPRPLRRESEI

With `NC1=N[C@H](O)[C@H]2[C@H]3O[C@]4(O)O[C@@H]([C@@H](O)[C@@]2(N1)[C@@H]4O)[C@]3(O)CO` [TTX, tetrodotoxin] the “block of the positive response” value [1] was “partially blocks the positive response” and the “effect on sustained signal above 50 V/cm” value [1] was “unaffected”.

For `CC[N+](CC)(CC)CC` [TEA, Tetraethylammonium], the “block of response to electrical stimulation” value [2] was “partially blocks the response”.

In the case of `[Ba+2].[Cl-].[Cl-]` [barium chloride], the “voltage change during stimulation with barium block” value [3] is reported as “no detectable voltage change”.
